Where only a bound is given, the exact number is not on record here.

What is called IC50 is the midpoint of a concentration-inhibition curve.

One assay concerns the target T1, P2X7 receptor (Homo sapiens, UniProt Q99572).
T1 construct: host or cells: SH-SY5Y
T1 sequence (Q99572 1-595): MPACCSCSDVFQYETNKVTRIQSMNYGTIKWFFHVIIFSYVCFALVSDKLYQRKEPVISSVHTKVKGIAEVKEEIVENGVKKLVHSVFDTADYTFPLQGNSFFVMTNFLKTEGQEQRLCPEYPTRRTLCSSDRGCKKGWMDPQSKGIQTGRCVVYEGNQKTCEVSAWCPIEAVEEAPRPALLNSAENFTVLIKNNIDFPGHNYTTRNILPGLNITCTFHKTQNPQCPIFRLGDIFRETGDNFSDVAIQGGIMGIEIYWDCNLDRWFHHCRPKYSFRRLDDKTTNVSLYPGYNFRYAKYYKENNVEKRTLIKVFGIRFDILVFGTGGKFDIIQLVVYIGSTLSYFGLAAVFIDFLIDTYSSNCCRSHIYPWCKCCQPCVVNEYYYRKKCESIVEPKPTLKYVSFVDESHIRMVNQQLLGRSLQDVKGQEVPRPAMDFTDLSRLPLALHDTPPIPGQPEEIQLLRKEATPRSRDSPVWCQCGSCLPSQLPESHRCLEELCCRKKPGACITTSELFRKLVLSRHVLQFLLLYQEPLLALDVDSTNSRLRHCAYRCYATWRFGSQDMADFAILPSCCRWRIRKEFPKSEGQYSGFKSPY
Nature of the assay: P2X7 calcium mobilization assay, high throughput, antagonist activity (Example 4A). The format is cell-based.
Conditions: not given
The method, boiled down:
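100,000 cells/well, plated day -1. Dye 1 h → rinse → compound 1 h, RT → FLIPR^TETRA Ca2+ mobilization. Max RFU minus mean negative control (no agonist); mean agonist-well max as positive control.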
(Calcium assays in cells follow changes in intracellular calcium, usually with a dye or a luminescent sensor.)
As for `O=C(Cc1cn2c(C(=O)NCC34CC5CC(CC(C5)C3)C4)cccc2n1)NCC1CCCO1` (centres unmarked) [Compound 157, N-(adamantan-1-ylmethyl)-2-{2-oxo-2-[(tetrahydrofuran-2-ylmethyl)amino]ethyl}imi-dazo[1,2-a]pyridine-5-carboxamide], the IC50 is less than 2000 nM.

The assay is the same for the next values; noted with them: 50% decrease in the fluorescence response of cells exposed to 80 μM 2′(3′)-O-(4-benzoyl-benzoyl)adenosine 5′-triphosphate; Example 4A; read-out: IC50.
Consider `CCOC(=O)N1CCN(C(=O)c2cn3c(C(=O)NC[C@@H]4CC[C@H]5C[C@@H]4C5(C)C)cccc3n2)CC1` [Compound 452, ethyl 4-{[5-({[(1S,2R,5S)-6,6-dimethylbicyclo[3.1.1]hept-2-yl]methyl}carbamoyl)imidazo[1,2-a]pyridin-2-yl]carbonyl}piperazine-1-carboxylate], for which the half-maximal inhibitory concentration (IC50) is less than 2000 nM. As to `O=C(CC12CC3CC(CC(C3)C1)C2)Nc1cccc2nc(C(=O)N3CCC(CO)CC3)cn12` [Compound 424, 2-adamantan-1-yl-N-(2-{[4-(hydroxymethyl)piperidin-1-yl]carbonyl}imidazo[1,2-a]pyridin-5-yl)acetamide], the concentration for half-maximal inhibition (IC50) is less than 2000 nM. The same measure, in the same setting: with `CCN(CC)C(=O)C1CCCN(C(=O)c2cn3c(C(=O)NC[C@@H]4CC[C@H]5C[C@@H]4C5(C)C)cccc3n2)C1` (stereo partly drawn) [Compound 456, 2-{[3-(diethylcarbamoyl)piperidin-1-yl]carbonyl}-N-{[(1S,2R,5S)-6,6-dimethylbicyclo[3.1.1]hept-2-yl]methyl}imidazo[1,2-a]pyridine-5-carboxamide] the figure was less than 2000 nM; with `CC(C)C[C@@H](NC(=O)c1cn2c(C(=O)NC[C@@H]3CC[C@H]4C[C@@H]3C4(C)C)cccc2n1)C(N)=O` [Compound 514, 2-N-[(1R)-1-carbamoyl-3-methylbutyl]-5-N-{[(1S,2R,5S)-6,6-dimethylbicyclo[3.1.1]hept-2-yl]methyl} imidazo[1,2-a]pyridine-2,5-dicarboxamide], less than 2000 nM; with `CC1(C)[C@@H]2CC[C@@H](CNC(=O)c3cccc4nc(CC(=O)N5CCCC5CN)cn34)[C@H]1C2` (stereo partly drawn) [Compound 580, 2-{2-[2-(aminomethyl)pyrrolidin-1-yl]-2-oxoethyl}-N-{[(1R,2R,5R)-6,6-dimethylbicyclo[3.1.1]hept-2-yl]methyl}imidazo[1,2-a]pyridine-5-carboxamide], less than 2000 nM.

Staying with this assay, now noted: 50% decrease in the fluorescence response of cells exposed to 80 μM of 2′(3′)-O-(4-benzoyl-benzoyl)adenosine 5′-triphosphate; Example 4A; read-out: IC50.
For `CN(C)C1CCCN(C(=O)CCc2cn3c(C(=O)NCC45CC6CC(CC(C6)C4)C5)cccc3n2)C1` (centres unmarked) [Compound 754, N-(adamantan-1-ylmethyl)-2-{3-[3-(dimethylamino)piperidin-1-yl]-3-oxopropyl} imidazo[1,2-a] pyridine-5-carboxamide], the IC50 was less than 2000 nM.

As to `N[C@@H]1CCCN(C(=O)Cc2cn3c(NC(=O)CC45CC6CC(CC(C6)C4)C5)cccc3n2)C1` [Compound 771, 2-adamantan-1-yl-N-(2-{2-[(3R)-3-aminopiperidin-1-yl]-2-oxoethyl}imidazo[1,2-a]pyridin-5-yl)acetamide], the IC50 was less than 2000 nM. With `N[C@@H]1CCCN(C(=O)c2cn3c(C(=O)NCC45CC6CC(CC(C6)C4)C5)cccc3n2)C1` [Compound 724, N-(adamantan-1-ylmethyl)-2-{[(3R)-3-aminopiperidin-1-yl]carbonyl}imidazo[1,2-a]pyridine-5-carboxamide], the IC50 is less than 2000 nM.

Turning to `O=C(N[C@@H]1CN2CCC1CC2)c1cn2c(C(=O)NCC34CC5CC(CC(C5)C3)C4)cccc2n1` [Compound 662, 5-N-(adamantan-1-ylmethyl)-2-N-[(3S)-1-azabicyclo[2.2.2]oct-3-yl]imidazo[1,2-a]pyridine-2,5-dicarboxamide], the IC50 was less than 2000 nM.

The same assay, now with this note: 50% decrease in the fluorescence response of cells exposed to 80 μM of 2′(3′)-O-(4-benzoyl-benzoyl)adenosine 5′-triphosphate; determined as in Example 4A; read-out: IC50.
On to `COc1ccc(C2(CNC(=O)c3cccc4nc(CC(=O)N[C@@H]5CCN(C(=O)OC(C)(C)C)C5)cn34)CCCCC2)cc1` [Compound 950, tert-butyl (3R)-3-({[5-({[1-(4-methoxyphenyl)cyclohexyl]methyl}carbamoyl)imidazo [1,2-a]pyridin-2-yl]acetyl}amino) pyrrolidine-1-carboxylate], for which the IC50 is less than 2000 nM.

As to `O=C(NCC12CC3CC(CC(C3)C1)C2)c1cccc2nc(C3(C(=O)O)CCCC3)cn12` [Compound 850, 1-{5-[(adamantan-1-ylmethyl)carbamoyl]imidazo [1,2-a]pyridin-2-yl} cyclopentane-carboxylic acid], the IC50 is less than 2000 nM. As to `CCCC(CNC(=O)c1cccc2nc(CC(=O)N[C@@H]3CCNC3)cn12)c1ccc(Cl)cc1` (stereo partly drawn) [Compound 951, N-[2-(4-chlorophenyl)pentyl]-2-{2-oxo-2-[(3R)-pyrrolidin-3-ylamino]ethyl} imidazo[1,2-a] pyridine-5-carboxamide], the IC50 was less than 2000 nM. Turning to `O=C(NCC12CC3CC(CC(C3)C1)C2)c1cccc2nc(CNc3ccn(CCCO)n3)cn12` [Compound 1000, N-(adamantan-1-ylmethyl)-2-({[1-(3-hydroxypropyl)-1H-pyrazol-3-yl]amino}methyl) imidazo [1,2-a]pyridine-5-carboxamide], the IC50 is less than 2000 nM. `CC(C)CCC(C(=O)O)c1cn2c(C(=O)NCC34CC5CC(CC(C5)C3)C4)cccc2n1` (centres unmarked) [Compound 912, 2-{5-[(adamantan-1-ylmethyl)carbamoyl]imidazo[1,2-a]pyridin-2-yl}-5-methylhexanoic acid]: the IC50 was less than 2000 nM. Still for that read-out and setting: with `COC1CCN(C(=O)Cc2cn3c(C(=O)NCC4(c5ccc(C(F)(F)F)cc5)CCCCC4)cccc3n2)CC1` [Compound 896, 2-[2-(4-methoxypiperidin-1 yl)-2-oxoethyl]-N-({1-[4-(trifluoromethyl)phenyl]cyclohexyl}methyl) imidazo[1,2-a] pyridine-5-carboxamide] the figure was less than 2000 nM. `O=C(NCC12CC3CC(CC(C3)C1)C2)c1cccc2nc(C(CC3CC3)C(=O)O)cn12` (centres unmarked) [Compound 1002, 2-{5-[(adamantan-1-ylmethyl)carbamoyl]imidazo[1,2-a]pyridin-2-yl}-3-cyclopropylpropanoic acid]: the IC50 was less than 2000 nM.

`NC(=O)COc1cccc(NC(=O)Cc2cn3c(C(=O)NCC4CCCCCC4)cccc3n2)c1` [Compound 958, 2-(2-{[3-(2-amino-2-oxoethoxy)phenyl]amino}-2-oxoethyl)-N-(cycloheptylmethyl) imidazo[1,2-a] pyridine-5-carboxamide]: the IC50 is less than 2000 nM.

The assay is the same for the next values; noted with them: P2X7 calcium mobilization, Example 4A; 50% decrease in the fluorescence response of cells exposed to 80 μM of (2′(3′)-O-(4-benzoyl-benzoyl)adenosine 5′-triphosephate); read-out: IC50.
As to `O=C(NCC1(c2ccc(C(F)(F)F)cc2)CCCCC1)c1cccc2nc(CN3CCCC3)cn12` [Compound 1044, 2-(pyrrolidin-1-ylmethyl)-N-({1-[4-(trifluoromethyl)phenyl]cyclohexyl}methyl) imidazo[1,2-a] pyridine-5-carboxamide], the IC50 is less than 2000 nM.

Still in this assay, the particulars now being: SH-SY5Y cells; 50% decrease in fluorescence response to 80 μM BzATP; read-out: IC50.
In the case of `CC(=O)NCCNCc1cn2c(C(=O)NCC34CC5CC(CC(C5)C3)C4)cccc2n1` [Compound 67, 2-{[(2-acetamido-ethyl)amino]methyl}-N-(adamantan-1-ylmethyl)imidazo[1,2-a]pyridine-5-carboxamide], the IC50 was less than 2000 nM. With `O=C(Cc1cn2c(C(=O)NCC34CC5CC(CC(C5)C3)C4)cccc2n1)NC1CC1` [Compound 148, N-(adamantan-1-ylmethyl)-2-[2-(cyclopropylamino)-2-oxoethyl]imidazo[1,2-a]pyridine-5-carboxamide], the IC50 is less than 2000 nM. `O=C(NCC12CC3CC(CC(C3)C1)C2)c1cccc2nc(CC(=O)N3CCOCC3)cn12` [Compound 182, N-(adamantan-1-ylmethyl)-2-(2-morpholin-4-yl-2-oxoethyl)imidazo[1,2-a]pyridine-5-carboxamide]: the IC50 is less than 2000 nM.

Still in this assay, the particulars now being: fluorescence response of cells exposed to 80 μM 2′(3′)-O-(4-benzoyl-benzoyl)adenosine 5′-triphosphate; Example 4A; read-out: IC50.
As for `O=C(NCC12CC3CC(CC(C3)C1)C2)c1cccc2nc(CN3CCCC3)cn12` [Compound 286, N-(adamantan-1-ylmethyl)-2-(pyrrolidin-1-ylmethyl)imidazo[1,2-a]pyridine-5-carboxamide], the IC50 is less than 2000 nM. Still for that read-out and setting: the same measure for `Cc1cc(-c2cn3c(C(=O)NCC45CC6CC(CC(C6)C4)C5)cccc3n2)n(CC(=O)O)n1` [Compound 347, (5-{5-[(adamantan-1-ylmethyl)carbamoyl]imidazo[1,2-a]pyridin-2-yl}-3-methyl-1H-pyrazol-1-yl)acetic acid]: less than 2000 nM; for `O=C(O)CS(=O)(=O)Cc1cn2c(C(=O)NCC34CC5CC(CC(C5)C3)C4)cccc2n1` [Compound 289, [({5-[(adamantan-1-ylmethyl)carbamoyl]imidazo[1,2-a]pyridin-2-yl}methyl)sulfonyl] acetic acid]: less than 2000 nM; for `CCN(CC)C(=O)c1cn2c(NC(=O)CC34CC5CC(CC(C5)C3)C4)cccc2n1` [Compound 365, 5-[(adamantan-1-ylacetyl)amino]-N,N-diethylimidazo[1,2-a]pyridine-2-carboxamide]: less than 2000 nM.

The values above are taken from US8431593B2, “Heteroaryl amide derivatives” (H. Lundbeck A/S, priority 2006, dated 2013).
